Some test systems named below: UACC-62; UACC-257; HCT-15; OVCAR-8; A498; RPMI-8226; U-251; SW-620; Hs-578T; T47D; HL-60; SNB-75; NCI-H522; 786-0; CCRF-CEM; SF-295; SN12C; SF-268; NCI-H23.
What all share (assay): NCI anticancer screen, dose series, 48 h

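Each compound was tested at five concentrations against cells in 96-well plates for 48 hours. Here, GI50 denotes the concentration required for 50% inhibition of growth.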 Active and inactive are the calls of the source. No stated cut-off is given here; in the data, active = GI50 up to about 1.1 µM and inactive = higher.

On to `CCCC(=O)OC(OC(=O)CCC)c1ccc([N+](=O)[O-])o1`, for which the GI50 with UACC-62 was 20.9 µM (inactive); in the experiment on UACC-257 it was 21.4 µM (inactive); with HCT-15, 15.7 µM; with OVCAR-8 it was 32.2 µM (inactive); in the experiment on A498 it was > 100 µM (inactive); in the experiment on RPMI-8226, 22.6 µM (inactive). In addition, the GI50 in the experiment on U-251 is 34.3 µM (inactive); in the experiment with SW-620 it was 20 µM (inactive); in the experiment on Hs-578T, 35.5 µM (inactive); in the experiment with T47D, 21.4 µM (inactive); in the experiment on HL-60, 26.3 µM (inactive); in the experiment on SNB-75 it was > 100 µM (inactive). In addition, the GI50 was 13.4 µM (inactive) with NCI-H522; 18.3 µM (inactive) in the experiment with 786-0; 28.2 µM (inactive) with CCRF-CEM; > 100 µM (inactive) in the experiment on SF-295; 17.3 µM (inactive) with SN12C; 65.6 µM (inactive) in the experiment on SF-268. In the experiment on NCI-H23, the GI50 was 22.1 µM (inactive).

For the compound `N=C(N)SCCCN`, the GI50 with UACC-62 was 17.6 µM (inactive); in the experiment with UACC-257 it was 5.4 µM (inactive); in the experiment with HCT-15, 5.02 µM; in the experiment with OVCAR-8, 3.87 µM (inactive); with A498, 32.1 µM (inactive); in the experiment on RPMI-8226, 18.5 µM (inactive). The GI50 is 6.11 µM (inactive) in the experiment with U-251; 26.4 µM (inactive) in the experiment on SW-620; 5.61 µM (inactive) with Hs-578T; 32.2 µM (inactive) in the experiment with T47D; 1.87 µM (inactive) with HL-60; 33.7 µM (inactive) with SNB-75. For the same compound, the GI50 with NCI-H522 is 5.41 µM (inactive); in the experiment with 786-0, 4.71 µM (inactive); in the experiment on CCRF-CEM it was 1.39 µM (inactive); in the experiment on SF-295, 21.6 µM (inactive); in the experiment with SN12C it was 25.2 µM (inactive); in the experiment with SF-268 it was 5.3 µM (inactive). Moreover, in the experiment with NCI-H23, the GI50 is 6.1 µM (inactive).

As for `CCCCCCCCCCCCc1ccsc1-c1ccc(-c2ccc(-c3sccc3CCCCCCCCCCCC)s2)s1`, the GI50 in the experiment on UACC-62 is > 100 µM (inactive); in the experiment on UACC-257 it was > 100 µM (inactive); in the experiment with HCT-15, > 100 µM; with OVCAR-8 it was > 100 µM (inactive); with A498 it was > 100 µM (inactive); in the experiment with RPMI-8226 it was > 100 µM (inactive). Besides, the GI50 with U-251, with SW-620, in the experiment with Hs-578T, with T47D, with HL-60 and with SNB-75 was > 100 µM (inactive) in each case. The GI50 with NCI-H522, in the experiment on 786-0, with CCRF-CEM, in the experiment with SF-295, in the experiment on SN12C and in the experiment on SF-268 was > 100 µM (inactive) in each case. Moreover, in the experiment with NCI-H23, the GI50 is > 100 µM (inactive).

`O=C1/C(=C\c2ccccc2)C(NC2CCCCC2)c2ccccc21` (stereo unspecified): the GI50 was 2.38 µM (inactive) with UACC-62; 1.29 µM (inactive) with UACC-257; 2.15 µM in the experiment with HCT-15; 2.12 µM (inactive) with OVCAR-8; 18.6 µM (inactive) in the experiment with A498; 0.387 µM (active) in the experiment on RPMI-8226. Besides, the GI50 in the experiment on U-251 was 1.73 µM (inactive); in the experiment with SW-620, 0.444 µM (active); with Hs-578T, 3.18 µM (inactive); in the experiment on T47D, 1.73 µM (inactive); with HL-60, 0.883 µM (active); in the experiment on SNB-75 it was 2.17 µM (inactive). Also, the GI50 in the experiment on NCI-H522 is 0.578 µM (active); in the experiment on 786-0, 0.828 µM (active); with CCRF-CEM, 0.124 µM (active); with SF-295 it was 18.8 µM (inactive); with SN12C, 1.55 µM (inactive); in the experiment with SF-268, 3.46 µM (inactive). The GI50 in the experiment on NCI-H23 is 0.76 µM (active).
